Reference: ChEMBL document CHEMBL5331114, “Discovery of Pyxinol Amide Derivatives Bearing Amino Acid Residues as Nonsubstrate Allosteric Inhibitors of P-Glycoprotein-Mediated Multidrug Resistance” (J Med Chem, 2023)

Tests used:
[1] = Reversal of multidrug resistance in human KBV Cells assessed as increase in PTX-induced cytotoxicity by measuring cell survival rate at 10 uM incubated for 72 hrs in presence of paclitaxel by MTT assay relative to control; format: functional; conditions: read-out: Survival
[2] = Induction of cell cycle arrest in human KBV cells assessed as accumulation of cells at Sub-G1 phase at 10 uM incubated for 24 hrs by flow cytometry analysis (reference value: 1.24 +/- 0.14%); format: functional
[3] = Induction of cell cycle arrest in human KBV cells assessed as accumulation of cells at G1-G0 phase at 10 uM incubated for 24 hrs by flow cytometry analysis (reference value: 62.34 +/- 0.24%); format: functional
[4] = Induction of cell cycle arrest in human KBV cells assessed as accumulation of cells at S phase at 10 uM incubated for 24 hrs by flow cytometry analysis (reference value: 12.42 +/- 0.41%); format: functional
[5] = Induction of cell cycle arrest in human KBV cells assessed as accumulation of cells at G2-M phase at 10 uM incubated for 24 hrs by flow cytometry analysis (reference value: 24.94 +/- 0.21%); format: functional
[6] = Induction of Ptx-mediated cell cycle arrest in human KBV cells assessed as accumulation of cells at Sub-G1 phase at 10 uM incubated for 24 hrs in presence of paclitaxel by flow cytometry analysis (reference value: 1.21 +/- 0.3%); format: functional
[7] = Induction of Ptx-mediated cell cycle arrest in human KBV cells assessed as accumulation of cells at G1-G0 phase at 10 uM incubated for 24 hrs in presence of paclitaxel by flow cytometry analysis (Rvb =57.76 +/- 0.78%); format: functional
[8] = Induction of Ptx-mediated cell cycle arrest in human KBV cells assessed as accumulation of cells at S phase at 10 uM incubated for 24 hrs in presence of paclitaxel by flow cytometry analysis (Rvb =16.63 +/- 0.4%); format: functional
[9] = Induction of Ptx-mediated cell cycle arrest in human KBV cells assessed as accumulation of cells at G2-M phase at 10 uM incubated for 24 hrs in presence of paclitaxel by flow cytometry analysis (Rvb =25.34 +/- 0.92%); format: functional
[10] = Cytotoxicity against human KBV Cells assessed as cell survival rate at 10 uM incubated for 72 hrs by MTT assay; format: functional; conditions: read-out: Survival
[11] = Reversal of multidrug resistance in human KBV Cells assessed as increase in PTX-induced cytotoxicity by measuring cell survival rate at 5 uM incubated for 72 hrs in presence of paclitaxel by MTT assay relative to control; format: functional; conditions: read-out: Survival
[12] = Reversal of multidrug resistance in human KBV Cells assessed as reversal fold of paclitaxel IC50 at 5 uM incubated for 72 hrs in presence of paclitaxel by MTT assay; format: functional
[13] = Reversal of multidrug resistance in human KBV Cells assessed as reversal fold of paclitaxel IC50 at 10 uM incubated for 72 hrs in presence of paclitaxel by MTT assay; format: functional
[14] = Drug accumulation in human KB cells at 10 uM incubated for 4 hrs by LC-MS/MS analysis; format: ADME, cell-based
[15] = Drug accumulation in human KBV cells at 10 uM incubated for 4 hrs by LC-MS/MS analysis; format: ADME, cell-based

| Structure (SMILES) | viability at 10 µM [1] | Activity [2] | Activity [3] | Activity [4] | Activity [5] | Activity [6] | Activity [7] | Activity [8] | Activity [9] | viability at 10 µM [10] | viability at 5 µM [11] | fold change (FC) [12] | fold change (FC) [13] | Drug uptake [14] | Drug uptake [15] |
| --- | --- | --- | --- | --- | --- | --- | --- | --- | --- | --- | --- | --- | --- | --- | --- |
| COc1ccc(CCN(C)CCCC(C#N)(c2ccc(OC)c(OC)c2)C(C)C)cc1OC (stereo not drawn) | 41% | 1.07% | 58.36% | 14.59% | 26.78% | 8.56% | 39.76% | 21.71% | 37.67% | – | – | – | – | – | – |
| CC(C)(C)OC(=O)N[C@@H](Cc1ccc(OC(C)(C)C)cc1)C(=O)N[C@H]1CC[C@]2(C)[C@H]3C[C@@H](O)[C@@H]4[C@@H]([C@]5(C)CC[C@@H](C(C)(C)O)O5)CC[C@@]4(C)[C@]3(C)CC[C@H]2C1(C)C | 19% | – | – | – | – | – | – | – | – | 85% | 30% | 35 | 209 | Not Active | Not Active |
| CC(C)(C)OC(=O)C[C@H](NC(=O)OC(C)(C)C)C(=O)N[C@H]1CC[C@]2(C)[C@H]3C[C@@H](O)[C@@H]4[C@@H]([C@]5(C)CC[C@@H](C(C)(C)O)O5)CC[C@@]4(C)[C@]3(C)CC[C@H]2C1(C)C | 28% | – | – | – | – | – | – | – | – | 94% | 33% | 61 | 130 | Not Active | Not Active |
